Source: US20110306597A1, “Nicotinamide Derivatives” (priority 2008, published 2011)

Biological target: human recombinant H-PGDS (Homo sapiens, UniProt O60760)
Experiment: Fluorescence Intensity h-PGDS TBA Enzyme Assay
Assay type: biochemical
Conditions: 1:175,000 human recombinant H-PGDS, highest inhibitor concentration typically 1 μM
Procedure, shortened: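 Readout is PGH2 depletion: after a 42 s reaction with 5.0 μM PGH2 and 2.5 mM glutathione (pH 8.0 Tris, 10 min inhibitor preincubation), Fe(II) converts leftover PGH2 to MDA, which forms a fluorescent TBA complex. IC50s come from 11-point, 3-fold duplicate curves, 4-parameter fit.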

Chain of human recombinant H-PGDS (O60760 whole entry): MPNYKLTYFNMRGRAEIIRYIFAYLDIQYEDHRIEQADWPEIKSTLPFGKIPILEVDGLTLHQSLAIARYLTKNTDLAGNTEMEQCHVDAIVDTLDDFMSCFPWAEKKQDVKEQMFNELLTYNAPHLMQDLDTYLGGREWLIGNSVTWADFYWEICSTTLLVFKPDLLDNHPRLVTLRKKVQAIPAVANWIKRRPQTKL

| Compound | IC50 [µM] |
| --- | --- |
| CCOC(=O)C(CNC(=O)c1ccc(-c2ccc(F)cc2)nc1)c1c(F)cccc1F (stereo not drawn) [Example 457, Ethyl 2-(2,6-difluorophenyl)-3-({[6-(4-fluorophenyl)pyridin-3-yl]carbonyl}amino) propanoate] | 0.428 |
| Cc1cc(CNC(=O)c2ccc(-c3cccc(F)c3)nc2)c(C(F)(F)F)o1 [Example 203, 6-(3-Fluorophenyl)-N-{[5-methyl-2-(trifluoromethyl)-3-furyl]methyl}nicotinamide] | 0.15 |
| N-(4-Fluorophenyl)-6-(3- methoxyphenyl)nicotinamide [Example 307] | 0.187 |
| CNC(=O)N1[C@@H]2CC[C@H]1C[C@H](NC(=O)c1ccc(-c3cccc(F)c3)nc1)C2 [Example 594, (3-exo)-3-({[6-(3-Fluorophenyl)-pyridin-3-yl]carbonyl}amino)-N-methyl-8-azabicyclo[3.2.1]octane-8-carboxamide] | 0.017 |
| Cc1cccc(-c2ccc(C(=O)NCCN3CCCC3)cn2)c1 [Example 237, 6-(3-Methylphenyl)-N-(2-pyrrolidin-1-ylethyl)nicotinamide] | 0.504 |
| COc1cccc(-c2ccc(C(=O)NCc3cccc(F)c3)cn2)c1 [Example 311, N-(3-Fluorobenzyl)-6-(3-methoxyphenyl)nicotinamide] | 0.368 |
| Cc1cccc(-c2ccc(C(=O)NCc3nc(CS(C)(=O)=O)no3)cn2)c1 [Example 222, 6-(3-Methylphenyl)-N-({3-[(methylsulfonyl)methyl]-1,2,4-oxadiazol-5-yl}methyl)nicotinamide] | 0.351 |
| Cc1cccc(-c2ccc(C(=O)NCc3ccc(Cl)cc3)cn2)c1 [Example 451, N-(4-Chlorobenzyl)-6-(3-methylphenyl)nicotinamide] | 0.234 |
| COc1cccc(-c2ccc(C(=O)NCC3CCN(C(C)=O)CC3)cn2)c1 [Example 273, N-[(1-Acetylpiperidin-4-yl)methyl]-6-(3-methoxyphenyl)nicotinamide] | 0.559 |
| CN(C)CC(C)(C)CNC(=O)c1ccc(-c2ccc(F)cc2)nc1 [Example 266, N-[3-(Dimethylamino)-2,2-dimethylpropyl]-6-(4-fluorophenyl)nicotinamide] | ≥ 1 |
| O=C(NCc1ccc(C(F)(F)F)cc1)c1ccc(-c2cccc(F)c2)nc1 [Example 409, 6-(3-Fluorophenyl)-N-[4-(trifluoromethyl)benzyl] nicotinamide] | 0.233 |
| CCN1CCCC(CNC(=O)c2ccc(-c3cccc(F)c3)nc2)C1 (stereo not drawn) [Example 114, N-[(1-Ethylpiperidin-3-yl)methyl]-6-(3-fluorophenyl)nicotinamide] | 0.236 |
| CCCCNC(=O)c1ccc(-c2ccc(F)cc2)nc1 [Example 326, N-Butyl-6-(4-fluorophenyl)nicotinamide] | 0.414 |
| COc1ccc(CNC(=O)c2ccc(-c3ccc(F)cc3)nc2)cc1 [Example 478, 6-(4-Fluorophenyl)-N-(4-methoxybenzyl)nicotinamide] | 0.377 |
| CSc1ccc(CNC(=O)c2ccc(-c3ccc(F)cc3)nc2)cc1 [Example 470, 6-(4-Fluorophenyl)-N-[4-(methylthio)benzyl]nicotinamide] | ≥ 1 |
| CN(C)CCCCCNC(=O)c1ccc(-c2cccc(F)c2)nc1 [Example 77, N-[5-(Dimethylamino)pentyl]-6-(3-fluorophenyl)nicotinamide] | 0.0903 |
| O=C(NCC1COc2ccccc2C1)c1cnc(-c2cccc(F)c2)c(Cl)c1 (stereo not drawn) [Example 547, 5-Chloro-N-(3,4-dihydro-2H-chromen-3-ylmethyl)-6-(3-fluorophenyl)nicotinamide] | 0.0984 |
| COC(=O)[C@@H](NC(=O)c1ccc(-c2cccc(F)c2)nc1)[C@@H](C)O [Example 147, Methyl N-{[6-(3-fluorophenyl)pyridin-3-yl]carbonyl}-L-threoninate] | 0.381 |
| CS(=O)(=O)Cc1noc(CNC(=O)c2ccc(-c3ccc(F)cc3)nc2)n1 [Example 322, 6-(4-Fluorophenyl)-N-({3-[(methylsulfonyl)methyl]-1,2,4-oxadiazol-5-yl}methyl)nicotinamide] | ≥ 1 |
| COC(C)(C)CNC(=O)c1ccc(-c2cccc(F)c2)nc1 [Example 194, 6-(3-Fluorophenyl)-N-(2-methoxy-2-methylpropyl)nicotinamide] | 0.376 |
| O=C(NCCCn1ncc2ccccc21)c1cnc(-c2cccc(F)c2)c(Cl)c1 [Example 551, 5-Chloro-6-(3-fluorophenyl)-N-[3-(1H-indazol-1-yl)propyl]nicotinamide] | 0.0847 |
| O=C(NC[C@@H]1CCCN2CCCC[C@H]12)c1ccc(-c2cccc(F)c2)nc1 [Example 73, 6-(3-Fluorophenyl)-N-[(1S,9aR)-octahydro-2H-quinolizin-1-ylmethyl]nicotinamide] | 0.0929 |

More lines, in order of falling IC50, values ahead:

| IC50 [µM] | Compound |
| --- | --- |
| 0.0644 | CC(C)(C)[C@@H](CO)NC(=O)c1ccc(-c2cccc(F)c2)nc1 [Example 539, 6-(3-Fluorophenyl)-N-[(1S)-1-(hydroxymethyl)-2,2-dimethylpropyl]nicotinamide] |
| 0.0608 | O=C(NCCN1CCOCC1)c1cnc(-c2cccc(F)c2)c(Cl)c1 [Example 552, 5-Chloro-6-(3-fluorophenyl)-N-(2-morpholin-4-ylethyl)nicotinamide] |
| 0.0599 | 6-(3-Fluorophenyl)-N-[2- hydroxy-2-(1-methyl-1H- imidazol-2- yl)ethyl]nicotinamide [Example 4] |
| 0.0543 | C[C@H](CNC(=O)c1ccc(-c2cccc(F)c2)nc1)NC(=O)OCc1ccccc1 [Example 437, Benzyl [(1R)-2-({[6-(3-fluorophenyl)pyridin-3-yl]carbonyl}amino)-1-methylethyl]carbamate] |
| 0.0471 | CS(=O)(=O)CCNC(=O)c1ccc(-c2cccc(F)c2)nc1 [Example 28, 6-(3-Fluorophenyl)-N-[2-(methylsulfonyl)ethyl] nicotinamide] |
| 0.0401 | CC(C)(CNC(=O)c1ccc(-c2cccc(F)c2)nc1)N1CCOCC1 [Example 417, 6-(3-Fluorophenyl)-N-(2-methyl-2-morpholin-4-ylpropyl)nicotinamide] |
| 0.0396 | CCOC(=O)CC(NC(=O)c1ccc(-c2ccccc2)nc1)c1ccccc1Cl (stereo not drawn) [Example 384, ethyl 3-(2-Chlorophenyl)-3-{[(6-phenylpyridin-3-yl)carbonyl]amino}propanoate] |
| 0.0392 | O=C(NC(CN1CCOCC1)c1ccccc1)c1ccc(-c2cccc(F)c2)nc1 (stereo not drawn) [Example 210, 6-(3-Fluorophenyl)-N-(2-morpholin-4-yl-1-phenylethyl)nicotinamide] |
| 0.0388 | CCC1CCN(CCNC(=O)c2ccc(-c3cccc(C)c3)nc2)CC1 [Example 235, N-[2-(4-Ethylpiperidin-1-yl)ethyl]-6-(3-methylphenyl)nicotinamide] |
| 0.0379 | O=C(NCC(O)c1ccccc1F)c1cnc(-c2cccc(F)c2)c(Cl)c1 (stereo not drawn) [Example 549, 5-Chloro-6-(3-fluorophenyl)-N-[2-(2-fluorophenyl)-2-hydroxyethyl]nicotinamide] |
| 0.0311 | O=C(NCCN1CCC(O)CC1)c1ccc(-c2cccc(F)c2)nc1 [Example 32, 6-(3-Fluorophenyl)-N-[2-(4-hydroxypiperidin-1-yl)ethyl]nicotinamide] |
| 0.0271 | O=C(NCCc1nnc(C2CC2)o1)c1ccc(-c2cccc(F)c2)nc1 [Example 207, N-[2-(5-Cyclopropyl-1,3,4-oxadiazol-2-yl)ethyl]-6-(3-fluorophenyl)nicotinamide] |
| 0.0251 | CCCOCCCNC(=O)c1ccc(-c2cc(F)cc(F)c2)nc1 [Example 569, 6-(3,5-Difluorophenyl)-N-(3-propoxypropyl)nicotinamide] |
| 0.021 | CC(C)CNC(=O)c1ccc(-c2ccccc2)nc1 [Example 378, N-Isobutyl-6-phenylnicotinamide] |
| 0.0138 | O=C(NCC1CCCN(c2ncc3c(n2)CCOC3)C1)c1ccc(-c2cccc(F)c2)nc1 (stereo not drawn) [Example 84, N-{[1-(7,8-Dihydro-5H-pyrano[4,3-d]pyrimidin-2-yl)piperidin-3-yl]methyl}-6-(3-fluorophenyl)nicotinamide] |
| 0.0135 | O=C(NCC1CC2(CCN(c3cnccn3)CC2)CO1)c1ccc(-c2cccc(F)c2)nc1 (stereo not drawn) [Example 54, 6-(3-Fluorophenyl)-N-[(8-pyrazin-2-yl-2-oxa-8-azaspiro[4.5]dec-3-yl)methyl]nicotinamide] |
| 0.0111 | COc1ccc(C(Cc2cc(C)no2)NC(=O)c2ccc(-c3cccc(F)c3)nc2)cc1OC (stereo not drawn) [Example 55, N-[1-(3,4-Dimethoxyphenyl)-2-(3-methylisoxazol-5-yl)ethyl]-6-(3-fluorophenyl)nicotinamide] |
| 0.00899 | O=C(NCCc1ccncc1)c1ccc(-c2cccc(F)c2)nc1 [Example 185, 6-(3-Fluorophenyl)-N-(2-pyridin-4-ylethyl)nicotinamide] |
| 0.00674 | CS(=O)(=O)c1cccc(CNC(=O)c2ccc(-c3cccc(F)c3)nc2)c1 [Example 189, 6-(3-Fluorophenyl)-N-[3-(methylsulfonyl)benzyl] nicotinamide] |
| 0.00651 | Cc1cccc(-c2ccc(C(=O)Nc3ccncc3)cn2)c1 [Example 228, 6-(3-Methylphenyl)-N-pyridin-4-ylnicotinamide] |
| 0.00636 | Cc1ncsc1CCNC(=O)c1ccc(-c2cccc(F)c2)nc1 [Example 132, 6-(3-Fluorophenyl)-N-[2-(4-methyl-1,3-thiazol-5-yl)ethyl]nicotinamide] |
| 0.00489 | Cc1ccc(C#N)c(N2C[C@H](NC(=O)c3ccc(-c4cccc(F)c4)nc3)[C@@H](O)C2)n1 [Example 562, N-[(3S,4S)-1-(3-Cyano-6-methylpyridin-2-yl)-4-hydroxypyrrolidin-3-yl]-6-(3-fluorophenyl)nicotinamide] |
| 0.00449 | O=C(NCc1coc(-c2ccccc2)n1)c1ccc(-c2cccc(F)c2)nc1 [Example 152, 6-(3-Fluorophenyl)-N-[(2-phenyl-1,3-oxazol-4-yl)methyl]nicotinamide] |
